Data published in publication PMC10518257 (Nature Cancer, 2023).
“And” between values parts separate entries of the source, which are not always exact repeats. Identical values can stand only once.

Columns and labels:
LUAD-0087AS2 cells = assay: Growth inhibition (alamarBlue, 96 h); assay type: cell-based, human; conditions: LUAD-0087AS2, replicate sets
ECLC5B cells = assay: Growth inhibition (alamarBlue, 96 h); assay type: cell-based, human; conditions: for raw viability signal (Source Data Fig. 3b-c): ECLC5B, replicates
TT cells = assay: Growth inhibition (alamarBlue, 96 h); assay type: cell-based, human; conditions: for raw viability signal (Source Data Fig. 3b-c): replicate sets
LUAD-0077AS1 PDX = assay: PDX efficacy study; assay type: in vivo, NSG mice; parameters: Tumor volume: unit not given here; conditions: 10 mg/kg BID
[1] = system: Ba/F3 KIF5B–RET^WT allograft tumors; assay: Subcutaneous allograft efficacy study; assay type: in vivo, BALB/c nude mice; conditions: Ba/F3-KIF5B::RET, Ext. Data Fig. 9a
[2] = Homo sapiens, 96 h, read-out: IC50 for Inhibition of Growth (95% CI)

For `COc1ccc(CN2C3CC2CN(c2ccc(-c4cc(OCC(C)(C)O)cn5ncc(C#N)c45)cn2)C3)cn1` [Selpercatinib], the “raw viability signal (Source Data Fig. 3b-c)” value (“raw viability signal” below) (LUAD-0087AS2 cells; 10 nM) was 6632.52 and 4277.26, the “raw viability signal” value (LUAD-0087AS2 cells; 100 nM) was 5690.09 and 3170.8 and the “raw viability signal” value (LUAD-0087AS2 cells; 1000 nM) was 5599.27 and 2744.81. The “raw viability signal” value (LUAD-0087AS2 cells; 10000 nM) was 3412.76 and 2132.34, the “raw viability signal” value (ECLC5B cells; 0.01 nM) was 10363.9 and 7402.21 and 18274 and the “raw viability signal” value (ECLC5B cells; 0.1 nM) was 11026.5 and 8834.98 and 20243.9. The “raw viability signal” value (ECLC5B cells; 1 nM) was 10668.5 and 7252.95 and 17721.9, the “raw viability signal” value (ECLC5B cells; 10 nM) was 3598.88 and 1351.95 and 6402.34 and the “raw viability signal” value (ECLC5B cells; 100 nM) was 3342.11 and 1356.99 and 4729.16. For the same compound, the “raw viability signal” value (ECLC5B cells; 1000 nM) was 2886.96 and 1354.63 and 4277.75, the “raw viability signal” value (ECLC5B cells; 10000 nM) was 1612.7 and 1276.67 and 2944.43 and the IC50 (ECLC5B cells; [2]) was 5 nM. For the same compound, the “raw viability signal” value (TT cells; 0.01 nM) was 21887.2 and 26414 and 26210.1 and 12272.3 and 26926.8, the “raw viability signal” value (TT cells; 0.1 nM) was 22325.8 and 26539.8 and 30465.8 and 11158.3 and 24677.4 and the “raw viability signal” value (TT cells; 1 nM) was 20930 and 26176.3 and 29470 and 9614.13 and 22745.1. For the same compound, the “raw viability signal” value (TT cells; 10 nM) was 15380.3 and 24600.1 and 21198.9 and 8183.69 and 18775.6, the “raw viability signal” value (TT cells; 100 nM) was 9716.19 and 12690.1 and 13114.5 and 5163.1 and 15418.2 and the “raw viability signal” value (TT cells; 1000 nM) was 9549.4 and 11696.3 and 12426 and 4648.23 and 14095. The “raw viability signal” value (TT cells; 10000 nM) was 9076.49 and 11812.8 and 14226.5 and 5846.11 and 12620.2, the IC50 (TT cells; [2]) was 23 nM and the “Area Under Curve Mean” value (LUAD-0077AS1 PDX; Fig. 6b LUAD-0077AS1 tumor growth) was -23. The “Change in tumor volume (block without heading, Fig. 6b)” value (LUAD-0077AS1 PDX; LUAD-0077AS1, individual animals) was 38.5614 and 19.1252 and 18.7579 and 13.1905 and -24.8651, the Tumor volume (LUAD-0077AS1 PDX; LUAD-0077AS1, treatment day 0, individual animals) was 87.11 (3×) and 85.5 and 88.7 and the Tumor volume (LUAD-0077AS1 PDX; LUAD-0077AS1, treatment day 4, individual animals) was 68.07 (2×) and 74.9 and 73.54 and 70.82. For the same compound, the Tumor volume (LUAD-0077AS1 PDX; LUAD-0077AS1, treatment day 7, individual animals) was 60.32 and 69.38 and 66.76 and 62.86, the Tumor volume (LUAD-0077AS1 PDX; LUAD-0077AS1, treatment day 11, individual animals) was 55.4 and 58.99 and 56.5 and 54.36 and 55.52 and the Tumor volume (LUAD-0077AS1 PDX; LUAD-0077AS1, treatment day 14, individual animals) was 43.41 and 58.99 (2×) and 54.36 and 55.52. The Tumor volume (LUAD-0077AS1 PDX; LUAD-0077AS1, treatment day 19, individual animals) was 65.45 and 118.47 and 103.45 and 103.77 and 100.4, the Tumor volume (LUAD-0077AS1 PDX; LUAD-0077AS1, treatment day 22, individual animals) was 73.3 and 171.06 and 147.55 and 142.9 and 164.22 and the Tumor volume (LUAD-0077AS1 PDX; LUAD-0077AS1, treatment day 25, individual animals) was 73.3 and 231.59 and 205.8 and 209.11 and 214.85. The “Tumor Volume Mean” value ([1]; 3 mg/kg BID, Day 1) was 153.36 mm3, the “Tumor Volume Mean” value ([1]; 3 mg/kg BID, Day 4) was 200.42 mm3 and the “Tumor Volume Mean” value ([1]; 3 mg/kg BID, Day 8) was 331.73 mm3. The “Tumor Volume Mean” value ([1]; 3 mg/kg BID, Day 11) was 595.39 mm3, the “Tumor Volume Mean” value ([1]; 3 mg/kg BID, Day 15) was 703.72 mm3 and the “Tumor Volume Mean” value ([1]; 10 mg/kg BID, Day 1) was 152.35 mm3. For the same compound, the “Tumor Volume Mean” value ([1]; 10 mg/kg BID, Day 4) was 168.16 mm3, the “Tumor Volume Mean” value ([1]; 10 mg/kg BID, Day 8) was 206.58 mm3 and the “Tumor Volume Mean” value ([1]; 10 mg/kg BID, Day 11) was 318.64 mm3. For the same compound, the “Tumor Volume Mean” value ([1]; 10 mg/kg BID, Day 15) was 406.01 mm3, the “Tumor Volume Mean” value ([1]; 30 mg/kg BID, Day 1) was 155.70 mm3 and the “Tumor Volume Mean” value ([1]; 30 mg/kg BID, Day 4) was 126.28 mm3. The “Tumor Volume Mean” value ([1]; 30 mg/kg BID, Day 8) was 138.87 mm3, the “Tumor Volume Mean” value ([1]; 30 mg/kg BID, Day 11) was 107.82 mm3 and the “Tumor Volume Mean” value ([1]; 30 mg/kg BID, Day 15) was 112.41 mm3. The “Tumor Volume Mean” value ([1]; 100 mg/kg BID, Day 1) was 157.17 mm3, the “Tumor Volume Mean” value ([1]; 100 mg/kg BID, Day 4) was 107.92 mm3 and the “Tumor Volume Mean” value ([1]; 100 mg/kg BID, Day 8) was 75.50 mm3.
